Results reported in patent publication US4980359A, “Isoquinoline derivatives and their use” (Sandoz Ltd., priority 1988, dated 1990).
Blank lines part the entries; values can stand above or below the compound they belong to.

Experiments:
[1] = tested on: PAF-induced airways hyperreactivity; experiment: Suppression of airways hyperreactivity, PAF-treated animals; format: in vivo, Guinea-pigs; details: Cavia porcellus, iv, method B
Protocol: Guinea-pigs are anesthetized and prepared for recording of lung function as described under example A.2. above. Intravenous injection of low dose bombesin (240 ng/kg) establishes airways sensitivity to spasmogens. Following infusion of PAF (platelet activating factor) over 1 hr.

[2] = tested on: guinea-pig tracheal ring preparations; experiment: Bronchospasmolytic activity in vitro (relaxation of tracheal rings); details: Cavia porcellus; method A.1, guinea-pig tracheal rings in vitro
Source text: 1. Bronchospasmolytic activity in vitro
The trachea is excised from freshly sacrificed guinea-pigs (Dunkin-Hatley (350-500 g) and transected in the transverse plane to give rings of tissue of ca. 3-5 mm deep. Individual rings are mounted vertically on stainless steel supports, one of which is fixed at the base of an organ bath, the other being attached to an isometric transducer. The rings are bathed in Krebs solution (composition […]: NaHCO3 25, NaCl 113, KCl 4.7, MgSO4.7H2) 1.2, KHhd 2PO4 1.2, CaCl2 2.5, Glucose 11.7) at 37° C. and gassed with O2 /CO2 (95:5, v/v). Rings prepared in this manner, preloaded with 1 g, generate spontaneous tone and, after a period of equilibration (45-60 min.), relax consistently on addition of spasmolytic drugs. Tension can be enhanced by addition of carbachol (10^-6 M) or histamine (10^-4 M). To ascertain spasmolytic activity, test substances are dissolved in physiological saline and added in increasing quantities to the organ bath at 10 min. intervals to provide a cumulative concentration-effect curve.
In the above test model compounds of formula I and their pharmaceutically acceptable acid addition salts produce concentrationrelated relaxation of guinea-pig tracheal ring preparations irrespective of the contractile agency at concentrations of from about 10^-7 to about 10^-5 M.

[3] = tested on: PAF-induced lung eosinophil accumulation; experiment: Inhibition of eosinophil accumulation (PAF-induced lung eosinophilia); format: in vivo, Guinea-pigs (Dunkin-Hartley); details: Cavia porcellus, sc, 168 h, method C, over 7 days
Protocol: EXAMPLE C: INHIBITION OF EOSINOPHIL ACCUMULATION
Guinea-pigs (Dunkin-Hartley 400-600 g) are injected intraperitoneally with 10 μg/kg of PAF, a procedure which produces lung eosinophilia.
Animals are sacrificed with pentobarbital (100 mg/kg i.p.) 24 hours later. The trachea is exposed and cannulated and the airway lumen washed by introduction and aspiration of 10 ml aliquots (x6) of buffered modified Tyrode solution (composition mM: NaHCO3 11.9, NaCl 136.9, KCl 2.7, Na2 HPO4, glucose 5.6, EDTA 19.8; protein % w/v=gelatin 0.1, BSA 0.5; pH to 7.4 by addition of 2N NaOH). Total fluid recovery generally exceeds 80%.
Cell suspensions are concentrated by low speed centrifugation (200 g for 10 mins.) and the resulting cell pellet is resuspended in 1 ml modified Tyrode solution. Total cell counts are effected in a haemocytometer by diluting 10 μl cell suspension in 90 μl Turks fluid. Differential cell counts are made from smears fixed in 100% methanol and stained with Leishman stain. At least 500 cells smear are counted at 1000 fold magnification to differentiate cell types.
Test compound is administered over 7 days at varying concentration in 1 mg/kg s.c. amounts with exposure to PAF occurring 5 days after commencement of test compound administration. […]

[4] = tested on: bombesin-induced bronchospasm; experiment: Bronchodilator activity in vivo (reversal of bombesin-induced bronchospasm); set-up: species or system Guinea pigs (Dunkin-Hartley); details: Cavia porcellus, method A.2, intra. duodenally
Protocol: 2. Bronchodilator activity in vivo
Guinea pigs (Dunkin-Hartley, .male., 400-600 g) are anesthetized with phenobarbital (100-mg/kg i.p.) and pentobarbital (30 mg/kg i.p.) and paralyzed with gallamine (10 mg/kg i.m.). Animals are ventilated via a tracheal cannula (10 ml/kg, 1Hz.). Blood pressure and heart rate are recorded at the carotid artery. Ventilation is monitored by a Fleisch flow transducer in lien with the inspiratory circuit. When making measurements of flow, coincident pressure changes in the thorax are monitored directly via an intrathoracic trochar, permitting display of differential pressure relative to the trachea. From this information resistance and compliance are calculated at each inspiration.
Continuous intravenous infusion of bombesin (50-100 ng/kg/min) induces sustained bronchospasm. Capacity of test-substance to reverse response when administered intra-duodenally via a 12 gauge metal needle fixed by a purse string ligature into the peripheral end of the transected duodenum serves as a measure of efficacy in reversing established bronchospasm.
The bronchodilator response is taken as the percentage reduction of the maximal response to bombesin, measured at regular intervals, up to 64 mins..

IC50 [2]: 0.3 µM
SMILES: COCCOc1cc(OCCOC)cc(-c2nc(C)cc3cc(OC)c(OC)cc23)c1 [Example 12, 3-methyl-6,7-dimethoxy-1-(3,5-dimethoxyethoxy-phenyl)-isoquinoline]
ED50 [1]: < 1 mg/kg
ED50 [3]: < 2 mg/kg
ED50 [4]: ~2 mg/kg

SMILES: Cn1c(=O)c2[nH]cnc2n(C)c1=O [Theophylline, theophylline]
ED50 [1]: 5 mg/kg
IC50 [2]: 77 µM
ED50 [3]: 5 mg/kg
ED50 [4]: 11 mg/kg
